In ChEMBL document CHEMBL1201862, “PubChem BioAssay data set” (2004):
The source made the active and inactive calls.

Key:
[1] = biological target: ORF 73 (Human herpesvirus 8, UniProt O40947); experiment: inhibitors of C-LANA binding to LBS DNA, dose response, biochemical, fluorescence polarization, cherry-picked samples (AID 504725); design: species or system Human gammaherpesvirus 8;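 also: fluorescence polarization of a labeled DNA duplex reporting LANA DNA binding; potency is for inhibitors that block LANA binding to the DNA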
Chain of ORF 73 (O40947 whole entry): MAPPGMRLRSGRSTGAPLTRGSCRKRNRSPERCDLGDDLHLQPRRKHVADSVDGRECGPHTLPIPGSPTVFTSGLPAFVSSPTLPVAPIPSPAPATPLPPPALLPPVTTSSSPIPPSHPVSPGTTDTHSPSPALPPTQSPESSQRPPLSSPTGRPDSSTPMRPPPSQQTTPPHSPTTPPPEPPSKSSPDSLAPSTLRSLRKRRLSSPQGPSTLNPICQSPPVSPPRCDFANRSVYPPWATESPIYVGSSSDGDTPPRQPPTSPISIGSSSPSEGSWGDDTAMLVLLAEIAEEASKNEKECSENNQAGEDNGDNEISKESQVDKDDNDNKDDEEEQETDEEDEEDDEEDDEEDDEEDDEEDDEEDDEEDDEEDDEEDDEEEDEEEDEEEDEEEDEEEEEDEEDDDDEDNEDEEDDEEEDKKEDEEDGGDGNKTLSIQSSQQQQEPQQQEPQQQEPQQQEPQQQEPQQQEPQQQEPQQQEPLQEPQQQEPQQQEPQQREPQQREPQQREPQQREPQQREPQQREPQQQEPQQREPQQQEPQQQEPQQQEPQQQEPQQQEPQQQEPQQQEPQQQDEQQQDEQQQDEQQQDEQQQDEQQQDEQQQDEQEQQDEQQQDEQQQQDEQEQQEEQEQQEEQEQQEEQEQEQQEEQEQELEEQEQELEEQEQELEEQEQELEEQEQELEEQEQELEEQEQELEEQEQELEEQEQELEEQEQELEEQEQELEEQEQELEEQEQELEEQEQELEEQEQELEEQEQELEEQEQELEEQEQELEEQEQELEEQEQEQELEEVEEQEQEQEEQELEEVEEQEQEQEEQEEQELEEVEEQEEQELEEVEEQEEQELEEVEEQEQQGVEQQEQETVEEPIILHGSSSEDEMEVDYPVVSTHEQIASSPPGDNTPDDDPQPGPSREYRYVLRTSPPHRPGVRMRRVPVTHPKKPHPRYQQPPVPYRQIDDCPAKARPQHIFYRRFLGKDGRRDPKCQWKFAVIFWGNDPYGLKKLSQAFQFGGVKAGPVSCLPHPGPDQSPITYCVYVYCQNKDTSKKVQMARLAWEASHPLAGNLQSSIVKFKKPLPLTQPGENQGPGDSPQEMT

[2] = biological target: Protein Rev (Human immunodeficiency virus type 1 group M subtype B (isolate HXB2)(HIV-1), UniProt P04618); experiment: inhibitors of Rev binding to RRE RNA, dose response, biochemical, fluorescence polarization, HIV-1 (AID 434976); design: species or system Human immunodeficiency virus 1
Chain of Protein Rev (P04618 whole entry): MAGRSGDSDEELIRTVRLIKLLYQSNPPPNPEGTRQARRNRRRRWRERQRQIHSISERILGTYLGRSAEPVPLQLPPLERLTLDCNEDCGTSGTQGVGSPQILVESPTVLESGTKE

[3] = biological target: Female germline-specific tumor suppressor gld-1 (Caenorhabditis elegans, UniProt Q17339); experiment: inhibitors of GLD-1 binding to TGE RNA, dose response, biochemical, fluorescence polarization, C. elegans (AID 2802);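 also: fluorescence polarization of labeled TGE RNA bound by purified gld-1 protein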
Chain of Female germline-specific tumor suppressor gld-1 (Q17339 whole entry, the tested form may be a part): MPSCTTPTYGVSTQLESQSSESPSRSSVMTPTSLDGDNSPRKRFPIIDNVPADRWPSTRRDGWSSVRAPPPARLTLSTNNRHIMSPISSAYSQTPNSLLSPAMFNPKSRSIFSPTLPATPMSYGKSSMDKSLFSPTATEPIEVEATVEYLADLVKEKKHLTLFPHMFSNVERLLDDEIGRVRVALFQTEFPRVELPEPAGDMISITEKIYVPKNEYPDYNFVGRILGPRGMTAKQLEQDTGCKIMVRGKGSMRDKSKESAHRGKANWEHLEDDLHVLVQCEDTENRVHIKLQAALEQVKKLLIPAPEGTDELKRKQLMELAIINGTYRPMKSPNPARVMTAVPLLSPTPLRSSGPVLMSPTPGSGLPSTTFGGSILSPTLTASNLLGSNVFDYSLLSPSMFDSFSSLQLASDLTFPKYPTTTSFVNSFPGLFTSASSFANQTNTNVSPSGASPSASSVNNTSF

[4] = biological target: T1, Fibrinogen beta chain (Homo sapiens, UniProt P02675); experiment: Fluorescence polarization-based biochemical high throughput dose response assay to identify inhibitors that disrupt the binding of a cyclic peptide (Tn6) to the fibrin proteolytic product D-Dimer and fragment E complex [DD(E )].
T1 sequence (P02675 whole entry, the tested form may be a part): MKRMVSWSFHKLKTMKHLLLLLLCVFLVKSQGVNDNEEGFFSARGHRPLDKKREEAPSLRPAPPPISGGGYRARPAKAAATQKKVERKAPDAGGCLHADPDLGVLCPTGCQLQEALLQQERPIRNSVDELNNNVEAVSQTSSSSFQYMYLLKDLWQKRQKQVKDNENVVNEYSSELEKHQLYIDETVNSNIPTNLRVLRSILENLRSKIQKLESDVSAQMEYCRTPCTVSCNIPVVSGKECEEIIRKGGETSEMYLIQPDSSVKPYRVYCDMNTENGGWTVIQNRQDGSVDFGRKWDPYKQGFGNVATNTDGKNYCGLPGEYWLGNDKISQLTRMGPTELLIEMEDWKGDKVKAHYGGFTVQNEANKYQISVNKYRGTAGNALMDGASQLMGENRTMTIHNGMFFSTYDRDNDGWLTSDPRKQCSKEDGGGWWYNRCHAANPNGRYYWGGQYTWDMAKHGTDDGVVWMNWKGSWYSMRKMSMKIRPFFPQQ

[5] = biological target: T1, Fibrinogen beta chain; experiment: Fluorescence polarization-based biochemical high throughput dose response assay to identify inhibitors that disrupt the binding of a cyclic peptide (Tn7) to the fibrin proteolytic product D-Dimer and fragment E complex [DD(E )].
[6] = biological target: Eukaryotic translation initiation factor 4H (Homo sapiens, UniProt Q15056); experiment: human eIF4H binding inhibitors, primary screen, translation initiation inhibitor project, biochemical, uHTS, fluorescence polarization (AID 2012)
[7] = biological target: Polyadenylate-binding protein 1 (Homo sapiens, UniProt P11940); experiment: PABP poly(A) RNA binding inhibitors, primary screen, biochemical, fluorescence polarization, uHTS (AID 2014)
Chain of Polyadenylate-binding protein 1 (P11940 whole entry): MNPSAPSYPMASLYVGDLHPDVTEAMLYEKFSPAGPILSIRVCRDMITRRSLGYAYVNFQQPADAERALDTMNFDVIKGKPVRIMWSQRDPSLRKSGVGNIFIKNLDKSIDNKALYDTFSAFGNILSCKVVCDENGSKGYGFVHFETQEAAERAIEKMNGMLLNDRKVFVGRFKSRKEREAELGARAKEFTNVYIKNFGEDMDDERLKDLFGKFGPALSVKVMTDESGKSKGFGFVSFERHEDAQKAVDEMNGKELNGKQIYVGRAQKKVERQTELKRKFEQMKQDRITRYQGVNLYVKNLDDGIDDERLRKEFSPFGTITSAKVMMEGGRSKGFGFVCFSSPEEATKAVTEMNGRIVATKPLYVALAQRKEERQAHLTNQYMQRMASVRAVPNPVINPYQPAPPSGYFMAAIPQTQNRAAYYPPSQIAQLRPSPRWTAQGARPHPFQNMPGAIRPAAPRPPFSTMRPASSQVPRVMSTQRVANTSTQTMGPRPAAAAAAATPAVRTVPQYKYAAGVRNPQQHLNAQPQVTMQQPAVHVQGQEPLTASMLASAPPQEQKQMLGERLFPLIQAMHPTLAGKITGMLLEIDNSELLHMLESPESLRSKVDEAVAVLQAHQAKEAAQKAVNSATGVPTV

[8] = test system: Streptococcus sp. 'group A'; experiment: growth inhibition of control SK(-) GAS strain, dose response, counter-screen for streptokinase expression inhibitor project, luminescence, kanamycin, BacTiterGlo, confirmation (AID 1900); assay type: functional, organism-based
[9] = biological target: T2, Streptokinase A (Streptococcus pyogenes serotype M1, UniProt P10520); experiment: S. pyogenes streptokinase expression inhibitors, potency, dose response, plasminogen activation absorbance, OD405 (AID 1914); assay type: functional, Streptococcus pyogenes M1 GAS;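 also: secreted streptokinase activity via plasminogen activation per viability signal from cell pellet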
T2 sequence (P10520 whole entry): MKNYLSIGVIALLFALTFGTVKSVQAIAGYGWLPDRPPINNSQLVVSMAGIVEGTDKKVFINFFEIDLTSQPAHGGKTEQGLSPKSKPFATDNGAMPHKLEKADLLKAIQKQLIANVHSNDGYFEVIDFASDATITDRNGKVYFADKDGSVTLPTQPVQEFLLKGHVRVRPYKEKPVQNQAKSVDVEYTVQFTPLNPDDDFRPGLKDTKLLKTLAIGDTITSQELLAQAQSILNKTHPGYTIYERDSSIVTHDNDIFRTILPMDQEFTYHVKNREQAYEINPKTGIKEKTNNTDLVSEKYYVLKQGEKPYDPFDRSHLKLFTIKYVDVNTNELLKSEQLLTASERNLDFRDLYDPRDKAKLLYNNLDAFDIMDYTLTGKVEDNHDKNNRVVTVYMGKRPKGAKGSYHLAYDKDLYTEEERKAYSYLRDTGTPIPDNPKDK

[10] = test system: Streptococcus; experiment: Group A Streptococcus viability loss, dose response, counter-screen for streptokinase expression inhibitor project, luminescence, BacTiterGlo (AID 1915); assay type: functional, organism-based;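 also: potency for reduction of bacterial viability or growth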
[11] = test system: Salmon testes DNA; experiment: DNA intercalators displacing acridine orange, dose response, artefact control for KSHV LANA DNA-binding inhibitor project, biochemical, fluorescence polarization, cherry-picked samples, set 2 (AID 504727); design: species or system Salmonidae
[12] = biological target: FAD-linked sulfhydryl oxidase ALR (Homo sapiens, UniProt P55789); experiment: inhibitors of human ALR sulfhydryl oxidase, dose response, biochemical, H2O2 detection, luminescence, cherry-pick (AID 493248)
Chain of FAD-linked sulfhydryl oxidase ALR (P55789 whole entry): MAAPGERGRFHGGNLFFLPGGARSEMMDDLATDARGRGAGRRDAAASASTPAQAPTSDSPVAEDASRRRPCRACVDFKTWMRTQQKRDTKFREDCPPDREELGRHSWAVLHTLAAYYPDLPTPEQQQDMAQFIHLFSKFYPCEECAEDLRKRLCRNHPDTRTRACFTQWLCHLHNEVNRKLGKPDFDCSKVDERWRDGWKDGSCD

[13] = biological target: T3, Cysteine protease ATG4B (Homo sapiens, UniProt Q9Y4P1); assay type: functional;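 also: Fluorescence-based dose-response confirmation assay measuring inhibition of ATG4B activity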
T3 sequence (Q9Y4P1 whole entry): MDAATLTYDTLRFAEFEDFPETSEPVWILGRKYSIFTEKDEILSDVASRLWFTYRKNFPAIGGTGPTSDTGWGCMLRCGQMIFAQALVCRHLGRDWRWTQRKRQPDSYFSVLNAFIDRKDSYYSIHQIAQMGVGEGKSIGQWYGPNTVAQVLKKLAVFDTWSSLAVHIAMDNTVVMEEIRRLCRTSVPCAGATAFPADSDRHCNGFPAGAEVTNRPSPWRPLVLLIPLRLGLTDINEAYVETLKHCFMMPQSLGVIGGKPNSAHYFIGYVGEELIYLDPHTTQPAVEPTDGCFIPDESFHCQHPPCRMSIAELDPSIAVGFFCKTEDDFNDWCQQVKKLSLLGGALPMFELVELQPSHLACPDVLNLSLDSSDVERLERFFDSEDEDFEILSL

[14] = biological target: T4, Endoribonuclease toxin MazF (Escherichia coli K-12, UniProt P0AE70); experiment: MazF toxin RNase activators, dose response, biochemical, fluorescence, single-stranded RNA substrate, uHTS hits (AID 588481); assay type: functional
T4 sequence (P0AE70 whole entry): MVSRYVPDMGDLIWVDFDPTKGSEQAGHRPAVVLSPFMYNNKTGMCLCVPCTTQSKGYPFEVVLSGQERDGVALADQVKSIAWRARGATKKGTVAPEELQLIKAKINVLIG

[15] = biological target: Phospholipase A2 (Homo sapiens, UniProt P04054); assay type: functional;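 also: confirmatory dose-response counterscreen on phospholipase A2, testing hits that came from an ultra-high-throughput screen for ATG4B inhibitors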
Chain of Phospholipase A2 (P04054 whole entry): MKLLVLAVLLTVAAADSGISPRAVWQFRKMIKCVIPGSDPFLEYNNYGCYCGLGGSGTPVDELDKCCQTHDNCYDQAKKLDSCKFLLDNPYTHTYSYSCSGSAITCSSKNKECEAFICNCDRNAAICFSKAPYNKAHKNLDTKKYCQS

[16] = biological target: T4, Endoribonuclease toxin MazF; experiment: fluorescent RNA oligo signal without MazF, dose response, counter-screen for MazEF activator project, biochemical, fluorescence, single-stranded RNase substrate (AID 588502); assay type: functional
[17] = test system: Vero; experiment: cytotoxicity of synthesized analogs in Vero 76, SAR follow-up, cytotoxicity control for West Nile virus antiviral project, Vero 76 cells (AID 2414); assay type: functional; settings: Chlorocebus sabaeus
[18] = test system: Vero; experiment: cytotoxicity of synthesized analogs in Vero cells, SAR follow-up, cytotoxicity control for West Nile virus antiviral project, cell-based, set II (AID 2402); assay type: functional; settings: Chlorocebus sabaeus
[19] = test system: Vero; experiment: Vero E6 cell cytotoxicity, SAR follow-up, cytotoxicity control for West Nile virus antiviral project, synthesized analogs (AID 2244); assay type: functional; settings: Chlorocebus sabaeus
[20] = A Cell Based Assay for the Identification of Probe candidate Compounds with Anti- Venezuelan Equine Encephalitis virus. [Related pubchem assays: 2409, 2419, 1621, 2238, 2405, 2024, 2065, 2402, 2414, 1635, 1650, 2244 ]; assay type: functional
[21] = test system: Vero; experiment: West Nile virus CPE inhibition, SAR follow-up, cell-based, synthesized analogs (AID 2238); assay type: functional; settings: Chlorocebus sabaeus
[22] = biological target: T5, Ubiquitin-conjugating enzyme E2 N (Homo sapiens, UniProt P61088); assay type: functional;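 also: Dose-response confirmation in a TR-FRET assay detecting UBC13-driven polyubiquitin chain formation, inhibition measured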
T5 sequence (P61088 whole entry): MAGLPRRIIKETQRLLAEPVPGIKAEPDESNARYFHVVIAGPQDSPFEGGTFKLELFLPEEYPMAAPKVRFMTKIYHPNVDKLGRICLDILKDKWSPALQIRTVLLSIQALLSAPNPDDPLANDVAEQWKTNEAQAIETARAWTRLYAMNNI

## O=C(Cn1nc(Cc2ccncc2)c2ccccc2c1=O)N1CCN(C(=O)c2ccco2)CC1
[1]
  AC50: 11.4 µM (active)

## COC(=O)c1ccc2c(c1)SC1=C(O)CCCC1=N2
[2]
  IC50: > 75.4 µM (not active)
[3]
  IC50: 6.11 µM (active)
[4]
  IC50: 17.9 µM (inactive)
[5]
  IC50: > 83.3 µM (inactive)

## COc1ccc2[nH]c(O)c(N=NC(=O)Cc3cccs3)c2c1
[6]
  IC50: 11 µM (active)
[7]
  IC50: 31 µM (active)

## O=C(O)C(c1ccccc1)N1C(=O)/C(=C\c2ccc(-c3cccc(Cl)c3)o2)SC1=S (configuration not stated)
[8]
  EC50: 2.37 µM (active)
[9]
  EC50: 1.37 µM (active)
[10]
  EC50: 2.23 µM (active)
[11]
  AC50: 40.7 µM (active)
[12]
  AC50: 3.54 µM (active)
[13]
  IC50: 4.41 µM (active)
[14]
  EC50: 50.3 µM (inactive)
[15]
  IC50: 11.2 µM (active)
[16]
  EC50: 97.1 µM (inactive)

## CC1CC(C)CN(CCCNC(=O)c2cc3c(s2)-c2ccccc2OC3)C1 (configuration not stated)
[17]
  CC50: 29.4 µM (active)
[18]
  CC50: 11.2 µM (active)
[19]
  CC50: 12.4 µM (active)
[20]
  IC50: 15.5 µM (active)
[21]
  IC50: > 40 µM (active)
[22]
  IC50: > 20 µM (inactive)
